Several values for one entry are separate records, joined by “and”; a condition that tells them apart may be missing. Equal entries are not always repeated. Entries after “also recorded” stand apart in the source; their conditions may differ. Values belong to the molecule of their own block, whether it stands above or below them.
Tests used:
mitoNEET [1] = biological target: T1, mitoNEET (Homo sapiens, UniProt Q9NZ45); test: [3H]rosiglitazone displacement binding assay (SPA); conditions: 20 nM [3H]rosiglitazone, 60 min, room temperature, 50 mM Tris pH 8; ± std error
T1 sequence (Q9NZ45 32-108 limits assumed): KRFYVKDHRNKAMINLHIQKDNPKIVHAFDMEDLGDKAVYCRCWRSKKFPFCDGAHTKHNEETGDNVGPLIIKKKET
Method: Recombinant mitoNEET was attached to nickel scintillation proximity assay (SPA) beads, and incubated with 20 nM [^3H] rosiglitazone (PerkinElmer) for 60 min at room temperature. The binding buffer was 50 mM Tris pH 8. White clear bottom 96-well plates were used for the assay, and the counts per minute analyzed in a MicroBeta Counter (Perkin Elmer). Data were analyzed as fraction of the total binding using a one-site model with GrapPad Prism 6 statistical software.

N2A mouse neuronal cells = test: Seahorse bioenergetics mitochondrial stress test; type: cell-based; conditions: 20 μM, three hours, vs DMSO vehicle
Method: Mitochondrial bioenergetics were evaluated by the use of the Seahorse 96-well plate reader. Cells were grown in specialty plates from the company, at 20,000 cells per well of N2A mouse neuronal cells. The cells were treated with compounds at 20 μM for three hours, and then a mitochondrial stress test (Seahorse Biosciences) done using compounds which affect mitochondrial function, including oligomycin, FCCP, rotenone, and antimycin A.

[2] = tested on: recombinant mitoNEET (mitoNEET-His protein); parameters: method as in PMID 27687671; conditions: read-out: IC50, binding to mitoNEET; cited from earlier work
mitoNEET [3] = biological target: T1, mitoNEET; test: Surface plasmon resonance; conditions: SPR, PBST pH 7.4, 1% DMSO, 25 °C, one-to-one binding model; read-out: equilibrium dissociation constant Kd
Method: Experiments were performed using Reichert4SPR refractometer system (Reichert Technologies, Depew, NY, USA) equipped with a dextran SPR sensor chip (Reichert carboxymethyl dextran P/N 13206066). Acetate buffer was used for immobilization of the protein MN (ligand). […] Data analysis were performed with TraceDrawer software. Final Kd values were determined by fitting to a one-to-one binding model.

mitoNEET [4] = biological target: T1, mitoNEET; test: Pull-down capture assay with furosemide probe on streptavidin beads; type: binding; conditions: 0–100 μM furosemide, N2A cell lysate with recombinant mitoNEET, 100 μM probe, Western blot
Method: For the ELISA assay, streptavidin plates (Pierce) were incubated for 30 min with a dose-dilution of the probe, after which an equal amount of recombinant mitoNEET protein was placed into the wells. After 2 h incubation at 4 °C, the plate was washed with a wash buffer with PBS pH 7.4 containing 0.05% Tween-20. The amount of mitoNEET was determine using a mitoNEET primary antibody (ProteinTech) 1:1000, followed by secondary anti-rabbit horseradish peroxidase antibody 1:2000 for 1 h. Detection of the color was done at 450 nm after addition of 3,3′,5,5′-tetramethylbenzidine solution and stopping solutions (Pierce). For the capture assay, N2A cells were lysed and collected with radio-immunoprecipitation assay buffer. […] At the end of the experiment, a magnetic tube rack was used to attract the magnetic beads. The solutions were washed with PBST (pH 7.4, 0.05% Tween-20), boiled for 5 min, and run on a BioRad 4–20% gel for Western Blot analysis (mitoNEET primary antibody 1:1000 and secondary HPR 1:2000).

[5] = biological target: T2, mitoNEET [2Fe-2S] cluster (Homo sapiens, UniProt Q9NZ45); test: Iron-sulfur cluster release assay; type: biochemical; conditions: 20 μM, pH 6.5, absorbance at 458 nm, room temperature
T2 sequence (Q9NZ45 with tags, fused parts or gaps): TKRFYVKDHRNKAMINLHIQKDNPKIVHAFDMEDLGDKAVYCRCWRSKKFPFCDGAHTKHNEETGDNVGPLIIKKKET
Method: This method was adapted as previously described. MitoNEET was prepared as described earlier and a stock of 4 mg/mL was used in the assay, in a 50 mM Tris buffer pH 8. […] In each well 80 μL of the appropriate buffer, with either vehicle or compound, and then mitoNEET protein was added at 20 μL. The 96-well plate was analyzed in a BioTek Synergy 4 plate reader, reading at 458 nm for a period of time, at room temperature. For the pH 8, we used 50 mM Tris pH 8, with 100 mM NaCl, and for the pH 6.5, we used the 50 mM Bis–Tris pH 6.5 with 100 mM NaCl buffer solution.

[6] = Dynamic light scattering aggregate formation; type: physicochemical; conditions: 20 μM in PBS pH 7.4
Method: This stock solution was diluted into PBS pH 7.4 to a final concentration of 20 μM, and the evaluated using a Malvern DLS Nano-ZS-90 system (Malvern Instruments).

[7] = biological target: the molecule itself; test: crystal structure; mitoNEET (20 mg/ml) with equimolar furosemide, sitting drop vapor diffusion, 60% v/v Tacsimate pH 7.0; 1.95 Å; MR-SAD with PDB 3REE as search model

Molecule: NS(=O)(=O)c1cc(C(=O)O)c(NCc2ccco2)cc1Cl [Furosemide, furosemide]
IC50 [2]: ~40 µM
Kd (mitoNEET [3]): 53.5 µM
basal respiration (oxygen consumption rate) (N2A mouse neuronal cells): increase
maximal respiration (N2A mouse neuronal cells): increase
proton leak (N2A mouse neuronal cells): trended to increase
mitoNEET captured by furosemide probe in presence of competitor (mitoNEET [4]): dose-dependently the reduction of mitoNEET captured; also recorded: able to reduce the amount of mitoNEET captured
iron-sulfur cluster release from mitoNEET [5]: able to slow down cluster release
iron-sulfur cluster release from mitoNEET ([5]; listed as furosemide): able to reduce cluster loss
IC50 (mitoNEET [1]): 29.3 ± 0.97 µM
aggregate formation in solution (DLS) [6]: did not observe any aggregate formation

Molecule: CCCCC/C=C\C/C=C\C/C=C\C/C=C\CCCC(=O)O [Arachidonic acid, reference compound]
IC50 (mitoNEET [1]): 2.93 ± 1.06 µM

Molecule: NS(=O)(=O)c1cc(C(=O)O)c(Cl)cc1Cl [compound 1, 2,4-dichloro-5-sulfamoylbenzoic acid, reference compound]
IC50 (mitoNEET [1]): 1021 ± 0.96 µM

B1: soluble domain of human mitoNEET (domain or fragment)
chain: T2 sequence (Q9NZ45 with tags, fused parts or gaps)
notes: mitoNEET (gene cisd1), human, soluble domain; Each subunit holds a [2Fe-2S] cluster (His87 and three cysteines); also called mN; MN; source: E. coli Rosetta 2 (DE3), purified (Ni-NTA, SUMO protease digestion, second Ni-NTA, size exclusion chromatography); not shown: His-SUMO, N-terminal, cleaved
binding result [7]: binds

Now from value to molecule, other results behind:

IC50 (mitoNEET [1]): 19.8 ± 0.9 µM
Molecule: CCCCCCCNc1cc(Cl)c(S(N)(=O)=O)cc1C(=O)O [2e]

IC50 (mitoNEET [1]): 81 µM and 81.4 µM
Molecule: CCCNc1cc(Cl)c(S(N)(=O)=O)cc1C(=O)O [2a]

IC50 (mitoNEET [1]): 20.7 µM and 20.8 µM
Molecule: NS(=O)(=O)c1cc(C(=O)O)c(NCc2ccccc2)cc1Cl [2l]
ATP-linked oxygen consumption (N2A mouse neuronal cells): increase
basal respiration (oxygen consumption rate) (N2A mouse neuronal cells): increase
maximal respiration (N2A mouse neuronal cells): increase

melting point: 184 to 185 °C
IC50 (mitoNEET [1]): 6.2 µM and 6.24 µM
Molecule: CCCCCCCCNc1cc(Cl)c(S(N)(=O)=O)cc1C(=O)O [2f]
ATP-linked oxygen consumption (N2A mouse neuronal cells): increase
basal respiration (oxygen consumption rate) (N2A mouse neuronal cells): increase
maximal respiration (N2A mouse neuronal cells): increase

IC50 (mitoNEET [1]): 54.3 ± 0.92 µM
Molecule: CCCCCNc1cc(Cl)c(S(N)(=O)=O)cc1C(=O)O [2c]

IC50 (mitoNEET [1]): 42.6 ± 1.03 µM
Molecule: CCCCNc1cc(Cl)c(S(N)(=O)=O)cc1C(=O)O [2b]

IC50 (mitoNEET [1]): 9.12 ± 1.04 µM
Molecule: CCCCCCNc1cc(Cl)c(S(N)(=O)=O)cc1C(=O)O [2d]

IC50 (mitoNEET [1]): 12.4 ± 1.23 µM
Molecule: NS(=O)(=O)c1cc(C(=O)O)c(NCc2cccs2)cc1Cl [2p]

IC50 (mitoNEET [1]): 8.82 ± 1 µM
Molecule: NS(=O)(=O)c1cc(C(=O)O)c(NCc2ccc(F)cc2)cc1Cl [2n]

Source: paper PMC7205193, “Crystal structure of the mitochondrial protein mitoNEET bound to a benze-sulfonide ligand” (Communications chemistry, 2019)
